{
  "source": "patent US8410161B2",
  "about": "“Thioxanthone ring system derivatives” (National Defense Medical Center, priority 2010, dated 2013)",
  "key": {"NCI-H460": {"tested_on": "NCI-H460", "test": "NCI in vitro DTP human cell line screen, NCI-H460", "type": "cell-based", "settings": "Non-Small Cell Lung Cancer, 1.00E−5 Molar", "procedure": "(§1) Then, a cell toxicity assay of the cancer lines made by National Cancer Institute will be discussed as follows. The cell toxicity assay is performed by choosing ten compounds (existing certification numbers) from the 59 compounds disclosed in the present invention first."}, "60 cancer lines": {"tested_on": "60 cancer lines", "test": "NCI cell toxicity assay of 60 cancer lines, whole panel summary", "type": "cell-based, human", "settings": "1.00E−5 Molar", "procedure": "as §1"}, "CCRF-CEM": {"tested_on": "CCRF-CEM", "test": "NCI in vitro DTP human cell line screen, CCRF-CEM", "type": "cell-based", "settings": "Leukemia, 1.00E−5 Molar", "procedure": "as §1"}, "SK-MEL-5": {"tested_on": "SK-MEL-5", "test": "NCI in vitro DTP human cell line screen, SK-MEL-5", "type": "cell-based", "settings": "Melanoma, 1.00E−5 Molar", "procedure": "as §1"}, "CAKI-1": {"tested_on": "CAKI-1", "test": "NCI in vitro DTP human cell line screen, CAKI-1", "type": "cell-based", "settings": "Renal Cancer, 1.00E−5 Molar", "procedure": "as §1"}, "NCI-H522": {"tested_on": "NCI-H522", "test": "NCI in vitro DTP human cell line screen, NCI-H522", "type": "cell-based", "settings": "Non-Small Cell Lung Cancer, 1.00E−5 Molar", "procedure": "as §1"}, "EKVX": {"tested_on": "EKVX", "test": "NCI in vitro DTP human cell line screen, EKVX", "type": "cell-based", "settings": "Non-Small Cell Lung Cancer, 1.00E−5 Molar", "procedure": "as §1"}, "MDA-MB-231/ATCC": {"tested_on": "MDA-MB-231/ATCC", "test": "NCI in vitro DTP human cell line screen, MDA-MB-231/ATCC", "type": "cell-based", "settings": "Breast Cancer, 1.00E−5 Molar", "procedure": "as §1"}, "786-0": {"tested_on": "786-0", "test": "NCI in vitro DTP human cell line screen, 786-0", "type": "cell-based", "settings": "Renal Cancer, 1.00E−5 Molar", "procedure": "as §1"}, "M14": {"tested_on": "M14", "test": "NCI in vitro DTP human cell line screen, M14", "type": "cell-based", "settings": "Melanoma, 1.00E−5 Molar", "procedure": "as §1"}, "HS 578-T": {"tested_on": "HS 578-T", "test": "NCI in vitro DTP human cell line screen, HS 578-T", "type": "cell-based", "settings": "Breast Cancer, 1.00E−5 Molar", "procedure": "as §1"}, "MDA-MB-468": {"tested_on": "MDA-MB-468", "test": "NCI in vitro DTP human cell line screen, MDA-MB-468", "type": "cell-based", "settings": "Breast Cancer, 1.00E−5 Molar", "procedure": "as §1"}, "HT29": {"tested_on": "HT29", "test": "NCI in vitro DTP human cell line screen, HT29", "type": "cell-based", "settings": "Colon Cancer, 1.00E−5 Molar", "procedure": "as §1"}, "OVCAR-3": {"tested_on": "OVCAR-3", "test": "NCI in vitro DTP human cell line screen, OVCAR-3", "type": "cell-based", "settings": "Ovarian Cancer, 1.00E−5 Molar", "procedure": "as §1"}, "SK-OV-3": {"tested_on": "SK-OV-3", "test": "NCI in vitro DTP human cell line screen, SK-OV-3", "type": "cell-based", "settings": "Ovarian Cancer, 1.00E−5 Molar", "procedure": "as §1"}, "PC-3": {"tested_on": "PC-3", "test": "NCI in vitro DTP human cell line screen, PC-3", "type": "cell-based", "settings": "Prostate Cancer, 1.00E−5 Molar", "procedure": "as §1"}, "RPMI-8226": {"tested_on": "RPMI-8226", "test": "NCI in vitro DTP human cell line screen, RPMI-8226", "type": "cell-based", "settings": "Leukemia, 1.00E−5 Molar", "procedure": "as §1"}, "MDA-MB-435": {"tested_on": "MDA-MB-435", "test": "NCI in vitro DTP human cell line screen, MDA-MB-435", "type": "cell-based", "settings": "Melanoma, 1.00E−5 Molar", "procedure": "as §1"}, "RXF 393": {"tested_on": "RXF 393", "test": "NCI in vitro DTP human cell line screen, RXF 393", "type": "cell-based", "settings": "Renal Cancer, 1.00E−5 Molar", "procedure": "as §1"}, "TK-10": {"tested_on": "TK-10", "test": "NCI in vitro DTP human cell line screen, TK-10", "type": "cell-based", "settings": "Renal Cancer, 1.00E−5 Molar", "procedure": "as §1"}, "BT-549": {"tested_on": "BT-549", "test": "NCI in vitro DTP human cell line screen, BT-549", "type": "cell-based", "settings": "Breast Cancer, 1.00E−5 Molar", "procedure": "as §1"}, "HL-60(TB)": {"tested_on": "HL-60(TB)", "test": "NCI in vitro DTP human cell line screen, HL-60(TB)", "type": "cell-based", "settings": "Leukemia, 1.00E−5 Molar", "procedure": "as §1"}, "HCC-2998": {"tested_on": "HCC-2998", "test": "NCI in vitro DTP human cell line screen, HCC-2998", "type": "cell-based", "settings": "Colon Cancer, 1.00E−5 Molar", "procedure": "as §1"}, "OVCAR-8": {"tested_on": "OVCAR-8", "test": "NCI in vitro DTP human cell line screen, OVCAR-8", "type": "cell-based", "settings": "Ovarian Cancer, 1.00E−5 Molar", "procedure": "as §1"}, "DU145": {"tested_on": "DU145", "test": "NCI in vitro DTP human cell line screen, DU145", "type": "cell-based", "settings": "Prostate Cancer, 1.00E−5 Molar", "procedure": "as §1"}, "SF-539": {"tested_on": "SF-539", "test": "NCI in vitro DTP human cell line screen, SF-539", "type": "cell-based", "settings": "CNS Cancer, 1.00E−5 Molar", "procedure": "as §1"}, "NCI-H23": {"tested_on": "NCI-H23", "test": "NCI in vitro DTP human cell line screen, NCI-H23", "type": "cell-based", "settings": "Non-Small Cell Lung Cancer, 1.00E−5 Molar", "procedure": "as §1"}, "COLO 205": {"tested_on": "COLO 205", "test": "NCI in vitro DTP human cell line screen, COLO 205", "type": "cell-based", "settings": "Colon Cancer, 1.00E−5 Molar", "procedure": "as §1"}, "SF-295": {"tested_on": "SF-295", "test": "NCI in vitro DTP human cell line screen, SF-295", "type": "cell-based", "settings": "CNS Cancer, 1.00E−5 Molar", "procedure": "as §1"}, "IGROV1": {"tested_on": "IGROV1", "test": "NCI in vitro DTP human cell line screen, IGROV1", "type": "cell-based", "settings": "Ovarian Cancer, 1.00E−5 Molar", "procedure": "as §1"}},
  "data": [
    {"smiles": "O=c1c2ccccc2sc2c(Cl)c(Sc3ccc(Cl)cc3)ccc12", "note": "[No. 29, 4-Chloro-3-(4-chlorophenylthio)-9H-thioxanthen-9-one]", "values": [
      {"measurement": "Growth Percent", "setting": "NCI-H460", "value": 40.25, "unit": "%"},
      {"measurement": "Growth Percent, Mean", "setting": "60 cancer lines; mean over all cell lines", "value": 78.44, "unit": "%"},
      {"measurement": "cancer types with the better inhibition effect (in words)", "setting": "60 cancer lines; summary of Table 3", "value": "better inhibition effect on Leukemia, non-small cell lung cancer, colorectal cancer, central nervous system cancer, ovarian cancer and kidney cancer"},
      {"measurement": "Growth Percent", "setting": "CCRF-CEM", "value": 67.42, "unit": "%"},
      {"measurement": "Growth Percent", "setting": "SK-MEL-5", "value": 88.35, "unit": "%"},
      {"measurement": "Growth Percent", "setting": "CAKI-1", "value": 48.21, "unit": "%"},
      {"measurement": "Growth Percent", "setting": "NCI-H522", "value": 80.48, "unit": "%"},
      {"measurement": "Growth Percent", "setting": "EKVX", "value": 73.14, "unit": "%"},
      {"measurement": "Growth Percent", "setting": "MDA-MB-231/ATCC", "value": 77.55, "unit": "%"},
      {"measurement": "Growth Percent", "setting": "786-0", "value": 84.66, "unit": "%"},
      {"measurement": "Growth Percent", "setting": "M14", "value": 89.62, "unit": "%"},
      {"measurement": "Growth Percent", "setting": "HS 578-T", "value": 102.79, "unit": "%"},
      {"measurement": "Growth Percent", "setting": "MDA-MB-468", "value": 87.73, "unit": "%"},
      {"measurement": "Growth Percent", "setting": "HT29", "value": 86.36, "unit": "%"},
      {"measurement": "Growth Percent", "setting": "OVCAR-3", "value": 90.37, "unit": "%"},
      {"measurement": "Growth Percent", "setting": "SK-OV-3", "value": 73.85, "unit": "%"},
      {"measurement": "Growth Percent", "setting": "PC-3", "value": 77.10, "unit": "%"},
      {"measurement": "Growth Percent", "setting": "RPMI-8226", "value": 88.56, "unit": "%"},
      {"measurement": "Growth Percent", "setting": "MDA-MB-435", "value": 85.11, "unit": "%"},
      {"measurement": "Growth Percent", "setting": "RXF 393", "value": 97.81, "unit": "%"},
      {"measurement": "Growth Percent", "setting": "TK-10", "value": 88.86, "unit": "%"},
      {"measurement": "Growth Percent", "setting": "BT-549", "value": 87.92, "unit": "%"},
      {"measurement": "Growth Percent", "setting": "HL-60(TB)", "value": 105.61, "unit": "%"},
      {"measurement": "Growth Percent", "setting": "HCC-2998", "value": 98.92, "unit": "%"},
      {"measurement": "Growth Percent", "setting": "OVCAR-8", "value": 64.49, "unit": "%"},
      {"measurement": "Growth Percent", "setting": "DU145", "value": 108.68, "unit": "%"},
      {"measurement": "Growth Percent", "setting": "SF-539", "value": 86.15, "unit": "%"},
      {"measurement": "Growth Percent", "setting": "NCI-H23", "value": 83.03, "unit": "%"},
      {"measurement": "Growth Percent", "setting": "COLO 205", "value": 87.02, "unit": "%"},
      {"measurement": "Growth Percent", "setting": "SF-295", "value": 57.86, "unit": "%"},
      {"measurement": "Growth Percent", "setting": "IGROV1", "value": 53.39, "unit": "%"}
    ]}
  ]
}
